Test results as given in ChEMBL document CHEMBL3507680, “University of Dundee, Gates Library screen for HepG2 cell viability”.

Assay: Human HepG2 cell viability assay in 384 well format
Assay type: toxicity, cell-based
Parameters: dose 125 nL, time 70.5 hour; cytotoxicity at 70.5 h: concentration not given beside the values
Conditions: HepG2 cells, read-out: Inhibition

SMILES	cytotoxicity at 70.5 h
Cc1cc(CNC(=O)C2CCC(=O)N(Cc3ccccc3F)C2)on1 (stereo not given)	-2.07%
CCc1cc(CNC(=O)C2CCC(=O)N(Cc3ccccc3F)C2)on1 (stereo not given)	-9.72%
CC(C)(O)c1cn(C2CCN(C(=O)CCC3CCCC3)CC2)nn1	27%
COc1cccc(C2CCN2C(=O)c2cc(C(C)C)on2)c1 (stereo not given)	-0.704%
Cc1nsc(NC(=O)N2CCCCC2CCO)n1 (stereo not given)	-6.53%
CN1[C@@H](c2ccccc2)[C@@H](C(=O)NCC2CCOCC2)C[C@@]1(C)C(=O)O	-11.8%
Cc1ccc(C2(O)CCN(C(=O)c3ccc(S(N)(=O)=O)cc3)CC2)nc1	-12.2%
CC(c1ccon1)N(C)S(=O)(=O)NCc1ccccc1 (stereo not given)	-2.95%
Cc1cnccc1NCCNC1CCN(CC(C)C)CC1	2.02%
Cn1cc2ncn([C@H]3CCN(Cc4ccccc4)C3)c(=O)c2n1	-6.58%
CCCn1nccc1C(=O)N1CCN(C2CCc3ccccc3C2)CC1 (stereo not given)	-7.89%
CCC(CO)N(C/C(C)=C/c1ccco1)Cc1ccsc1 (stereo not given)	3.15%
Cc1cc(C(=O)N2CCCCC2c2nc3cc(F)ccc3[nH]2)no1 (stereo not given)	27.9%
NC1CCCCN(Cc2ccccc2CS(=O)(=O)c2ccccc2)C1 (stereo not given)	-8.29%
CCc1nc(C)c([C@H]2CN(C)C[C@@H]2C(=O)Nc2ccc(OC)nc2)[nH]1	-1.87%
CN1CCC2(CC1)CN(C(=O)c1cccc3cccnc13)CCN2C	-8.6%
O=C(O)c1ccc(N2CCC(Oc3cccc(F)c3)CC2)nc1	14.5%
CCN(CC)C(=O)c1ccc(Cl)c(NC(=O)c2cnc(C)cn2)c1	-7.02%
CCCn1cc(-c2cc(-c3c[nH]cn3)c(C#N)c(N)n2)c(C)n1	3.58%
CCC(C(=O)NCC1=CCCN(C)C1)c1ccccc1 (stereo not given)	-13.4%
N#Cc1ccnc(N2CCC(NCCN3CCCC3)CC2)c1	-6.96%
Cc1ccc(-c2n[nH]cc2CN(Cc2nccn2C)C(C)C)cc1C	-5.49%

SMILES	cytotoxicity at 70.5 h
CSCC(=O)N1CCc2nc(C)nc(NCc3ccccc3)c2CC1	-5.43%
CS(=O)(=O)N1CCN(C(=O)c2ccco2)[C@H]2CS(=O)(=O)C[C@H]21	15.1%
CN(Cc1csc(-c2cccs2)n1)C(=O)CN1CCOC1=O	-3.58%
Cc1nn(C)cc1C(=O)N1CCCN(C2Cc3ccccc3C2)CC1	14.3%
CS(=O)(=O)c1ccc(CN2C[C@H]3CC[C@@H]2CN(c2ncccn2)C3)cc1	-5.94%
COC(=O)c1cccc(CN(C)C(C)c2ccccn2)c1 (stereo not given)	-24.9%
COc1ccccc1C(=O)N1CCN(C(=O)CCCc2cn[nH]c2)CC1	-6.9%
CCn1nc(C)cc1C(=O)N1CCCN(CCCc2ccccc2)CC1	1.03%
Cc1cc(C(=O)N(C)Cc2nc(-c3ccccn3)no2)c(C)o1	-4.74%
CNc1ncc(C(=O)N2CCC(CCc3ccccc3)CC2)cn1	13.7%
CCCN1CCN(Cc2cccc(OCC(N)=O)c2)[C@H]2CS(=O)(=O)C[C@H]21	0.755%
CCOc1ncccc1CN1Cc2ncccc2C1=O	-6.82%
CCn1cncc1Cn1ncc2ccccc2c1=O	-7.38%
CCN1CCCC2(CCN(Cc3nnc(C4CC4)o3)C2)C1=O (stereo not given)	0.731%
CC(C)Cn1c(=O)n(CCCn2cccn2)c2cc(C(=O)O)cnc21	-10.8%
CC[C@@]1(O)CCN(C(=O)c2ccc(CN3CCCCCC3)cc2)C[C@H]1O	-3.75%
CN(Cc1cccc(-n2cccn2)c1)C(=O)c1cccc(N(C)C)c1	-10.6%
CCCc1nnc(NC2CCN(C3CCOCC3)CC2)o1	-9.47%
CN(Cc1cc[nH]n1)C(C(=O)O)c1ccc(Cl)cc1 (stereo not given)	-4.85%
COc1ncccc1C1CC(=O)NCc2nc3sccn3c21 (stereo not given)	-12.8%
COc1ccccc1N1CCN(C(=O)CCn2nnnc2C)CC1(C)C	19.3%
O=C1O[C@@H]2CN(C3CCOCC3)C[C@@H]2N1CCCc1ccc(F)cc1	14.2%

SMILES	cytotoxicity at 70.5 h
Cc1cc(CN(C)C(C(=O)O)c2ccc(C(C)(C)C)cc2)on1 (stereo not given)	-5.92%
Nc1cc(-c2cccc3c2CCNC3)ncn1	-6.17%
Cc1ccc(CCNc2nc(-c3ccncc3)nc3c2CCNCC3)o1	2.56%
CC(C)Cc1cc(C(=O)N2CC(OCc3ccccc3F)C2)n(C)n1	-2.8%
COc1cccc(C(=O)N2CCc3c(nc(N)[nH]c3=O)C2)c1OC	-2.24%
CS(=O)(=O)CCN1CC(c2ccccc2)(c2ccccc2)CCC1=O	22.9%
Cc1ncsc1-c1nc(CC2CCN(C)CC2)nn1Cc1ccccc1	8.01%
COc1ccc([C@@H]2CN(C(=O)CS(C)(=O)=O)C[C@H]2NC(C)=O)cc1	-2.94%
CNC(=O)[C@@H]1C[C@@H](N)CN1c1nnc(-c2ccccc2)s1	-4.95%
CCn1ncnc1C(C)NC(=O)COc1ccc(Cl)cc1Cl (stereo not given)	-10.4%
Cc1nn(C)c(C)c1C(C(=O)O)N1CCc2ccccc2C1 (stereo not given)	0.959%
CC(=O)NCc1cccc(-n2ccnc2-c2cccc(C(=O)O)c2)c1	16.6%
CSc1nc(C)cc(N2CCC(c3ncc[nH]3)CC2)n1	-2.3%
CN(CCCOc1ccccc1Cl)C(=O)CN1C[C@@H]2CC[C@H](CC1=O)N2	-2.68%
CN(C)CC(c1ccccc1)N(C)C(=O)c1cccc(NCC(=O)O)c1 (stereo not given)	-0.106%
CSc1ccccc1NC(=O)N1C[C@@H](N(C)C)[C@H](c2ccc(C)cc2)C1	-13.9%
COc1cccc(OC)c1C(C(=O)O)N(C)Cc1c(C)n[nH]c1C (stereo not given)	-14.8%
O=C1CCCc2occ(C(=O)N3CCCC4(CCNC4)C3)c21 (stereo not given)	-7.04%
c1cnnc(-c2noc(CCN3CCCO3)n2)c1	-10.9%
Cc1ccccc1CCC1CCCN(Cc2nnc(-c3ccco3)o2)C1 (stereo not given)	-12.7%
Cc1nn(CC(=O)O)c(C)c1NS(=O)(=O)c1cccc2ccccc12	-6.18%
COCCCN(Cc1cnc(-c2ccccn2)nc1)C1CCN(C)CC1	-22.2%

SMILES	cytotoxicity at 70.5 h
CCOC(=O)N1CCC(NC(C)c2ccccc2-n2cccn2)CC1 (stereo not given)	35.4%
OC1(CNCCCN2CCc3ccccc32)CCNC1 (stereo not given)	22.2%
Cc1ccccc1-n1cc(-c2ccnc(N[C@H](CO)C(C)C)n2)cn1	-14.1%
CCOc1ccc2[nH]c(=O)c(CN3CCCC3c3ccccn3)cc2c1 (stereo not given)	-11.8%
Cc1ccc(C(=O)N2CCC(n3cc(CO)nn3)CC2)cn1	11%
CSCc1noc(CNS(=O)(=O)c2cccc(C(=O)NC3CC3)c2)n1	-10.1%
Cc1nonc1CN1CC[C@@](O)(C2CCC2)[C@H](C)C1	-3.97%
CN(C)C(=O)CN1C[C@@H]2CC[C@H](C1)N(Cc1ccccc1OCCO)C2	-9.08%
CC(C)OC(=O)c1ccc(Cl)c(NC(=O)NCCN2CCOCC2)c1	-7.91%
Cc1ncsc1CCC(=O)NCc1csc(N2CCCC2)n1	-6.59%
COc1ccccc1-n1c(CC(C)C)nnc1SCC(=O)O	-2.95%
CCCc1nc(CNC(=O)Cc2cc(C)no2)cs1	19.8%
COc1ccc2c(c1)OCC(Cc1ccc(CN)cn1)C2 (stereo not given)	-7.48%
CCc1ncc(CN2CCCN(CC3CC3)C(C(C)C)C2)cn1 (stereo not given)	9.86%
Cc1ccccc1-c1noc(C2CC(C(C)C)=NO2)n1 (stereo not given)	-0.419%
Cc1cc(N(C)CCCn2cccn2)nc(-c2cccnc2)n1	11.2%
CN(C)c1ncc(-c2c(-c3ccccc3)ncn2C(CO)C(=O)O)cn1 (stereo not given)	-10.8%
COc1cccc(-c2n[nH]cc2-c2nc(CC3CCN(C)CC3)no2)c1	-6.75%
COc1cccc2c1OCC(C(=O)NCCc1nnc(C)s1)C2 (stereo not given)	8.68%
CC(Cn1cncn1)NC(=O)c1cn(Cc2ccccc2F)nn1 (stereo not given)	0.213%
O=C(C1CCS(=O)(=O)CC1)N1CCC(Cc2ccc(F)cc2)CC1	3.44%
Cc1ccc(F)c(OC2(C(=O)O)CCN(C(=O)c3ccncc3)CC2)c1	-4.46%

SMILES	cytotoxicity at 70.5 h
COc1cccc(OCC2CCCN(C(=O)c3cc(C)n[nH]3)C2)c1 (stereo not given)	4.2%
CCn1cc(S(=O)(=O)NC2CCCN(CCCc3ccccc3)C2)cn1 (stereo not given)	-1%
CCc1cn[nH]c1C1CCN(C(=O)c2cc(C#N)c(=O)[nH]c2C)CC1	-3.13%
CN1CC2(CCCN(Cc3nnc(-c4cccc(F)c4)o3)C2)OC1=O (stereo not given)	-5.83%
Cc1cc(N2C[C@H](NC(=O)C3(C#N)CCOCC3)[C@@H](C(C)C)C2)ccn1	-10.5%
Cc1cc(C)n(-c2ccc(C(=O)NCc3cncn3CC(C)C)cc2)n1	-1.13%
O=C1CC2(CCN(C(=O)Cc3cc4c(cc3Cl)OCCO4)C2)C(=O)N1 (stereo not given)	-5.25%
Cc1cccc(N2CCC(N3CCCC4(CN(C)C(=O)O4)C3)CC2)c1C (stereo not given)	-9.98%
C[C@@H]1CN(C(=O)c2cc(COc3ccc4c(c3)OCO4)[nH]n2)C[C@H](C)O1	-3.48%
CCC(C(=O)NCc1noc(Cc2cccs2)n1)n1cccn1 (stereo not given)	26%
Cc1cc2ccccc2n1CCC(=O)N1CCCC(O)(CN(C)C)CC1 (stereo not given)	-0.891%
Cc1ccccc1CN(CCO)Cc1ncc[nH]1	-12.3%
CCn1c(CC2CCN(C(=O)c3cc(C(C)C)n[nH]3)CC2)n[nH]c1=O	-6.21%
Nc1nc(Sc2cccs2)cc(N2CC[C@H](CO)[C@H](O)C2)n1	22.1%
COc1ccnc(N2C[C@@H]3CC[C@H](C2)N(CC2CC2)C3)n1	4.47%
CNC(=O)C1CCN(C(=O)c2coc(COc3ccc(OC)cc3)n2)C1 (stereo not given)	-2.27%
Cc1ccc(F)c(OC2(C(=O)O)CCN(C(=O)C3CCCC3)CC2)c1	-4.91%
Cc1c(CN2CCCC(c3[nH]ncc3S(C)(=O)=O)C2)cnn1C (stereo not given)	-5.66%
Fc1cccnc1CN1CCCCC1c1ccn2ccnc2n1 (stereo not given)	6.23%
Nc1cc(CCC2CN(Cc3ccc(C(=O)O)cc3)CCO2)ccn1 (stereo not given)	23.8%
CNc1ccc(CC2CCCN(C(=O)c3cncnc3C)C2)nn1 (stereo not given)	-0.989%
CCn1cc(C(=O)N2CCCC(c3[nH]ncc3S(C)(=O)=O)C2)cn1 (stereo not given)	-8.2%
